Earlier results, collected in US20110229418A1, “Compositions and Methods of Treating and Preventing Lung Cancer” (priority 2010, published 2011).
Read-outs that look alike come from different tables or passages of the source.

How the values were obtained:
Lewis lung LLC1 cells = conditions: mice injected with Lewis lung LLC1 cells, orally administered
[1] = long-term treatment
[2] = system: tobacco carcinogen-induced lung tumorigenesis; conditions: mice
lung cancer cell [3] = conditions: in vitro
lung cancer cell [4] = conditions: in vivo
[5] = system: AMP activated protein kinase (AMPK) pathway
[6] = patients with type 2 diabetes, compared with those that did not use metformin

In the case of CN(C)C(=N)N=C(N)N [metformin], the tumor growth (Lewis lung LLC1 cells; control diet) is listed as “no effect on tumor growth”, the tumor growth (Lewis lung LLC1 cells; high-energy diet) is listed as “reduce tumor growth” and the adverse effects [1] is listed as “few adverse effects”. The “tobacco carcinogen-induced lung tumorigenesis” value [2] was “prevents tobacco carcinogen-induced lung tumorigenesis”, the “sensitization to ionizing radiation” value (human lung cancer cells) was “sensitizes human lung cancer cells to ionizing radiation” and the “lung cancer cell growth” value (lung cancer cell [3]) was “inhibited”. For the same compound, the “lung cancer cell growth” value (lung cancer cell [4]) was “inhibited”, the AMPK pathway activation [5] was “activates the AMP activated protein kinase (AMPK) pathway” and the cancer mortality [6] was “lower cancer mortality”.
